Measured values published in patent US10799456B2, “Multiple drug lipid nanoparticle composition and related methods for extended drug levels in blood and lymph tissue” (priority 2015, dated 2020).

Columns and labels:
[1] = Sucrose gradient test of drug association; format: physicochemical; settings: 5-20% sucrose gradient, 200,000 g, 4 hr, LPV/RTV/TFV LNPs, single miscible solvent method
Procedure: The sucrose gradient test to determine this characteristic is described in Example 5. Briefly, the sucrose gradient test comprises subjecting the multi-drug lipid nanoparticle to a continuous 5%-20% sucrose gradient and applying a centrifugal force of 200,000 g for 4 hours. The unassociated small molecules separate and float to the less dense fractions, whereas the associated small molecule agents sediment with the stable lipid nanoparticles in the denser gradients. The relative amounts of the unassociated and associated small molecule reagents can be quantified and, thus, compared.
The sucrose gradient test centrifugation test separates any unbound drugs from multi-drug lipid nanoparticles by sedimentation of lipid-drug particles through a sucrose gradient with increasing density to strip off unbound drugs. Under these conditions, all the free drugs in solution remained at (or floated to) the top of gradient where the sucrose density is low. Specifically, using a continuous gradient of 5-20% (with 65% cushion) sucrose, the lipid-drug particle mixture was subjected to centrifugal force at 200,000 g for 4 hr. Through this process, we were able to separate bound and unbound drug fractions. […] It is noted that the observed percentage of multi drug lipid nanoparticle association for the other two drugs (LPV and RTV) are consistent with data in Table 11.

[2] = Tables 18 and 19; cited from earlier work
[3] = % Drug association to particles by assembly method; format: physicochemical
How it was run: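 Drugs and excipients (e.g., 9:1 DSPC:PEG-DSPE) dissolved in single-phase CHCl3:alcohol:water (65:35:4), dried under reduced pressure, heated above lipid phase transition (e.g., 50° C.). Hydrated with equilibrated buffered saline at that temperature for 3 hr, then size-reduced by shearing or pressurized filtration in liquid phase.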

[4] = Drug incorporation efficiency into lipid-drug nanoparticles (dialysis); format: physicochemical; settings: LNPs with ATV + RTV + TFV (2:1:3); for Incorporation efficiency (%): laboratory 0.2 mL scale; for Incorporation efficiency (%) / Drug incorporation (% total): preclinical 45 mL scale
Procedure: J Acquir Immune Defic Syndr. […] Journal of pharmaceutical sciences. […] The AAPS journal. […] Residual solvent was removed overnight by vacuum desiccation. The dried lipid-drug film was then rehydrated with 0.9% NaCl containing 20 mM sodium bicarbonate (pH 7.4). The lipid-drug samples were allowed to hydrate at 60° C. for 2 h. Then samples were sonicated (laboratory scale) or homogenized (preclinical scale) to achieve a homogenous suspension.
The incorporation efficiency was calculated as the ratio of the amount of incorporated drug over the total amount of drug loaded multiplied by 100%.

[5] = Intracellular drug concentration in peripheral blood mononuclear cells (PBMCs); format: in vivo, Macaca nemestrina
Procedure: Four macaques were divided into two treatment groups (two animals per group). […] Data were normalized to the anti-HIV LNP dose for comparative analysis.
Plasma was removed, PBMCs were isolated by the density gradient method, and cells were aliquoted into pellets of approximately 2 million PBMCs each. An inguinal lymph node was surgically excised 24 h after drug administration (n=2 per treatment), LNMCs were isolated by passage through a 100-lm nylon cell strainer (Corning, Tewksbury, Mass.), and cells were aliquoted into pellets of approximately 1-2 million LNMCs each. All samples were stored at −80° C. prior to drug analysis.
Plasma concentrations of all three drugs were analyzed simultaneously by liquid chromatography-tandem mass spectrometry using a recently published method. […] PBMC and LNMC pellets were lysed using 200 μl water/methanol (1:1 v/v), sonicated for 10 min, and then extracted and analyzed using the same method as cited above. Intracellular concentrations were converted to ng/ml with the assumption that each cell has a volume of 4×10^−9 ml.

[6] = Plasma drug exposure of three multi-drug lipid formulations vs free drug in primates; settings: for Lipid/Free Ratio: total AUC
[7] = cited from earlier work
[8] = reported values; cited from earlier work
[9] = literature, cited from earlier work

**Q.** For `CC(C)c1nc(CN(C)C(=O)N[C@H](C(=O)N[C@@H](Cc2ccccc2)C[C@H](O)[C@H](Cc2ccccc2)NC(=O)OCc2cncs2)C(C)C)cs1` [Ritonavir (RTV), Ritonavir], which “% association to lipid-drug particles (bound fraction)” value (“% association … (bound fraction)” for short) [1] is on record?
**A.** 76%

**Q.** What about the LogP [2] of the same compound?
**A.** 6

**Q.** What about the “% Drug Association to Particles, LNPs from mixture of dual solvent method” value [3] of the same compound?
**A.** 80-100%

**Q.** And the “% Drug Association to Particles, LNPs from single, miscible solvent method” value [3]?
**A.** 90-100%

**Q.** Which “Incorporation efficiency (%)” value [4] does the source give for `C[C@H](Cn1cnc2c(N)ncnc21)OCP(=O)(O)O` [Tenofovir (TFV), [(2R)-1-(6-aminopurin-9-yl)propan-2-yl]oxymethylphosphonic acid] here?
**A.** 2.4 ± 0.1%

**Q.** What about the “Incorporation efficiency (%)” value ([4]; listed as TFV) of the same compound?
**A.** about 2.4%

**Q.** What about the “Incorporation efficiency (%) / Drug incorporation (% total)” value [4] of the same compound?
**A.** 6.1 ± 0.8%

**Q.** What about the “Incorporation efficiency (%) / Drug incorporation (% total)” value ([4]; listed as tenofovir) of the same compound?
**A.** 6.1±0.8%

**Q.** What about the “% association … (bound fraction)” value [1] of the same compound?
**A.** around 75.5%

**Q.** What about the “% association … (bound fraction)” value ([1]; listed as Tenofovir (TFV or PMPA)) of the same compound?
**A.** 75.5%

**Q.** And the “LNP/free ratio, mononuclear cells in blood” value (“LNP/free ratio” for short) ([5]; 0 h)?
**A.** 1.0

**Q.** And the “Lipid/Free Ratio, PBMCs” value ([5]; 0 h)?
**A.** 1

**Q.** And the “LNP/free ratio” value ([5]; 0.5 h)?
**A.** 0.3

**Q.** And the “Lipid/Free Ratio, PBMCs” value ([5]; 0.5 h)?
**A.** 0.3

**Q.** What about the “LNP/free ratio” value ([5]; 1 h) of the same compound?
**A.** 0.4

**Q.** What about the “Lipid/Free Ratio, PBMCs” value ([5]; 1 h) of the same compound?
**A.** 0.4

**Q.** And the “LNP/free ratio” value ([5]; 3 h)?
**A.** 0.5

**Q.** What about the “LNP/free ratio” value ([5]; 5 h) of the same compound?
**A.** 4.6

**Q.** And the “Lipid/Free Ratio, PBMCs” value ([5]; 5 h)?
**A.** 4.6

**Q.** And the “LNP/free ratio” value ([5]; 8 h)?
**A.** 59.0

**Q.** What about the “LNP/free ratio” value ([5]; 8 h, listed as PMPA) of the same compound?
**A.** over 50

**Q.** And the “LNP/free ratio” value ([5]; 8 h, listed as TFV)?
**A.** over 50

**Q.** What about the “LNP/free ratio” value ([5]; 24 h) of the same compound?
**A.** 70.0

**Q.** And the “Lipid/Free Ratio, PBMCs” value ([5]; 24 h)?
**A.** 70

**Q.** And the “LNP/free ratio” value ([5]; 48 h)?
**A.** >227.0

**Q.** And the “LNP/free ratio” value ([5]; 168 h)?
**A.** >25.0

**Q.** And the “Lipid/Free Ratio, PBMCs” value ([5]; 168 h)?
**A.** >25.0

**Q.** And the “Lipid/Free Ratio” value ([6]; ATZ/RTV/TFV combination)?
**A.** 25.2

**Q.** And the “Lipid/Free Ratio” value ([6]; LPV/RTV/TFV combination)?
**A.** 13.1

**Q.** And the “fold increase in plasma exposure, lipid-stabilized vs free drug” value ([6]; across drug combinations)?
**A.** 10- to 20 fold

**Q.** And the “Water solubility @ 25° C.” value [7]?
**A.** 13.3 mg/mL

**Q.** And the “% Drug Association to Particles, LNPs from mixture of dual solvent method” value [3]?
**A.** 7-30%

**Q.** What about the “% Drug Association to Particles, LNPs from single, miscible solvent method” value [3] of the same compound?
**A.** 78-85%

**Q.** And the “% association of hydrophilic drug in typical liposome” value ([3]; typical liposomes)?
**A.** 3-5%

**Q.** What about the “% Drug Association to Particles, Liposomes” value [8] of the same compound?
**A.** ~5%

**Q.** And the “final % drug association” value ([9]; double emulsion nano-precipitate method)?
**A.** less than 3%

**Q.** What about the “association of hydrophilic drug” value ([9]; phosphatidylcholine with stearylamine, particles up to ˜2000 nm) of the same compound?
**A.** 70%
